Results reported in patent US8575158B2, “1-phenyl-substituted heterocyclyl derivatives and their use as prostaglandin D2 receptor modulators” (Actelion Pharmaceuticals Ltd., priority 2010, dated 2013).

Biological target: T1, hCRTH2 receptor (Homo sapiens, UniProt Q9Y5Y4)
T1 construct: expressed in transfected cells; host or cells: HEK293
T1 sequence (Q9Y5Y4 1-395): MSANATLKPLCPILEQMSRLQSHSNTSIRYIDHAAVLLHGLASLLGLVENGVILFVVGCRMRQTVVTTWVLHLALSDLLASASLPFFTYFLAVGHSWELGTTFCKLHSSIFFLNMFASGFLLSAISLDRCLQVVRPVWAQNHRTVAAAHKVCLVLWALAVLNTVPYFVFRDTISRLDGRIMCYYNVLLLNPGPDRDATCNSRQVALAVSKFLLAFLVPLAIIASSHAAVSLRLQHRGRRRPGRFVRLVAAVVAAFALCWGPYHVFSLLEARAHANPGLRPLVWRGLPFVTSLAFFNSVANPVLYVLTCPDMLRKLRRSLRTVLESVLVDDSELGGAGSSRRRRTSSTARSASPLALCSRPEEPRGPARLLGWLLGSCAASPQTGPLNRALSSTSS
Assay: Radioligand displacement assay (3H-PGD2) on hCRTH2 receptor membranes
Assay type: binding
Details: antagonistic activity; 3H-PGD2 displacement on HEK293-hCRTH2 membrane fragments

Row | SMILES | IC50
1 | COc1ccc2[nH]c(CC(=O)N3CCc4ccccc4C3c3cc(Cl)ccc3OCC(=O)O)cc2c1 (racemic) [Example 99, (±)-(4-Chloro-2-{2-[2-(5-methoxy-1H-indol-2-yl)-acetyl]-1,2,3,4-tetrahydro-isoquinolin-1-yl}-phenoxy)-acetic acid] | 296 nM
2 | O=C(O)COc1ccc(Cl)cc1C1c2ccccc2CCN1C(=O)CCCc1ccc(F)cc1 (racemic) [Example 103, (±)-(4-Chloro-2-{2-[4-(4-fluoro-phenyl)-butyryl]-1,2,3,4-tetrahydro-isoquinolin-1-yl}-phenoxy)-acetic acid] | 11.2 nM
3 | Cc1ccccc1CCC(=O)N1CCc2ccccc2C1c1cc(Cl)ccc1OCC(=O)O (racemic) [Example 104, (±)-{4-Chloro-2-[2-(3-o-tolyl-propionyl)-1,2,3,4-tetrahydro-isoquinolin-1-yl]-phenoxy}-acetic acid] | 28.6 nM
4 | O=C(O)COc1ccc(Cl)cc1C1c2ccccc2CCN1C(=O)COCc1ccccc1Cl (racemic) [Example 106, (±)-(4-Chloro-2-{2-[2-(2-chloro-benzyloxy)-acetyl]-1,2,3,4-tetrahydro-isoquinolin-1-yl}-phenoxy)-acetic acid] | 4.06 nM
5 | O=C(O)COc1ccc(Cl)cc1C1c2ccccc2CCN1C(=O)CCCc1cccc(F)c1 (racemic) [Example 108, (±)-(4-Chloro-2-{2-[4-(3-fluoro-phenyl)-butyryl]-1,2,3,4-tetrahydro-isoquinolin-1-yl}-phenoxy)-acetic acid] | 35.9 nM
6 | O=C(O)COc1ccc(Cl)cc1C1c2ccccc2CCN1C(=O)CCCc1cccc(Cl)c1Cl (racemic) [Example 109, (±)-(4-Chloro-2-{2-[4-(2,3-dichloro-phenyl)-butyryl]-1,2,3,4-tetrahydro-isoquinolin-1-yl}-phenoxy)-acetic acid] | 16.9 nM

Further compounds by falling IC50, results first:

Row | IC50 | SMILES
7 | 205 nM | Cc1ccc2onc(CC(=O)N3CCc4ccccc4C3c3cc(Cl)ccc3OCC(=O)O)c2c1 (racemic) [Example 100, (±)-(4-Chloro-2-{2-[2-(5-methyl-benzo[d]isoxazol-3-yl)-acetyl]-1,2,3,4-tetrahydro-isoquinolin-1-yl}-phenoxy)-acetic acid]
8 | 124 nM | O=C(O)COc1ccc(Cl)cc1C1c2ccccc2CCN1C(=O)Cc1csc2ccc(Cl)cc12 (racemic) [Example 98, (±)-(4-Chloro-2-{2-[2-(5-chloro-benzo[b]thiophen-3-yl)-acetyl]-1,2,3,4-tetrahydro-isoquinolin-1-yl}-phenoxy)-acetic acid]
9 | 20.6 nM | O=C(O)COc1ccc(Cl)cc1C1c2ccccc2CCN1C(=O)CCCc1ccccc1 (racemic) [Example 107, (±)-{4-Chloro-2-[2-(4-phenyl-butyryl)-1,2,3,4-tetrahydro-isoquinolin-1-yl]-phenoxy}-acetic acid]
10 | 19.6 nM | COc1ccc2onc(CC(=O)N3CCc4ccccc4C3c3cc(Cl)ccc3OCC(=O)O)c2c1 (racemic) [Example 101, (±)-(4-Chloro-2-{2-[2-(5-methoxy-benzo[d]isoxazol-3-yl)-acetyl]-1,2,3,4-tetrahydro-isoquinolin-1-yl}-phenoxy)-acetic acid]
11 | 9.95 nM | O=C(O)COc1ccc(Cl)cc1C1c2ccccc2CCN1C(=O)COCc1ccccc1 (racemic) [Example 105, (±)-{2-[2-(2-Benzyloxy-acetyl)-1,2,3,4-tetrahydro-isoquinolin-1-yl]-4-chloro-phenoxy}-acetic acid]
12 | 9.7 nM | Cc1ccc(CCCC(=O)N2CCc3ccccc3C2c2cc(Cl)ccc2OCC(=O)O)cc1 (racemic) [Example 97, (±)-{4-Chloro-2-[2-(4-p-tolyl-butyryl)-1,2,3,4-tetrahydro-isoquinolin-1-yl]-phenoxy}-acetic acid]
13 | 7.53 nM | O=C(O)COc1ccc(Cl)cc1C1c2ccccc2CCN1C(=O)CCOc1ccc(F)cc1 (racemic) [Example 102, (±)-(4-Chloro-2-{2-[3-(4-fluoro-phenoxy)-propionyl]-1,2,3,4-tetrahydro-isoquinolin-1-yl}-phenoxy)-acetic acid]
